Reference: US8394801B2, “Quinoxaline derivatives and their use for treating benign and malignant tumour disorders” (Aeterna Zentaris GmbH, priority 2009, dated 2013)

How the values were obtained:
SKOV-3 = experiment: Proliferation assay (Alamar Blue / XTT), SKOV-3; assay type: cell-based; conditions: Homo sapiens, SK-OV-3; cell line SKOV-3 (ovaries)
NCI-H460 = experiment: Proliferation assay (Alamar Blue / XTT), NCI-H460; assay type: cell-based; conditions: Homo sapiens; cell line NCI-H460 (lung)
MDA MB468 = experiment: Proliferation assay (Alamar Blue / XTT), MDA MB468; assay type: cell-based; conditions: Homo sapiens, MDA-MB-468; cell line MDA-MB468 (breast)
RKOP27 = experiment: Proliferation assay (Alamar Blue / XTT), RKOP27; assay type: cell-based; conditions: Homo sapiens; cell line RKOp27 (colon)
PC-3 = experiment: Proliferation assay (Alamar Blue / XTT), PC-3; assay type: cell-based; conditions: Homo sapiens, cell line PC3 (prostate)
HCT116 = experiment: Proliferation assay (Alamar Blue / XTT), HCT116; assay type: cell-based; conditions: Homo sapiens; cell line HCT-116 (colon)
A549 = experiment: Proliferation assay (Alamar Blue / XTT), A549; assay type: cell-based; conditions: Homo sapiens; cell line A549 (lung)
U87MG = experiment: Proliferation assay (Alamar Blue / XTT), U87MG; assay type: cell-based; conditions: Homo sapiens, U-87 MG; cell line U87MG (glioma)

Row | SMILES | EC50 (SKOV-3) [nM] | EC50 (NCI-H460) [nM] | EC50 (PC-3) [nM] | EC50 (HCT116) [nM] | EC50 (A549) [nM] | EC50 (U87MG) [nM] | melting point [°C] | EC50 (MDA MB468) [nM] | EC50 (RKOP27) [nM]
1 | Cc1cc(-c2ccc3ncc(NC(=O)NC(C)(C)C)nc3c2)cc(C)c1O [Compound 9, 1-tert-Butyl-3-[7-(4-hydroxy-3,5-dimethylphenyl)quinoxalin-2-yl]urea] | 248 | 238 | 112 | 229 | 289 | 181 | – | 263 | 176
2 | Cc1cc(-c2ccc3ncc(NC(=O)Nc4cccs4)nc3c2)cc(C)c1O [Compound 15, 1-[7-(4-Hydroxy-3,5-dimethylphenyl)quinoxalin-2-yl]-3-thiophen-2-ylurea] | 1810 | 714 | 309 | 475 | 836 | 1340 | – | 835 | –
3 | CC(C)NC(=O)Nc1cnc2ccc(-c3ccc(N)cc3)cc2n1 [Compound 68, 1-[7-(4-Amino-phenyl)-quinoxalin-2-yl]-3-isopropyl-urea] | – | – | 453 | 474 | 626 | 529 | > 300 | 1670 | –
4 | CC(C)NC(=O)Nc1cnc2ccc(-c3cnn(C)c3)cc2n1 [Compound 70, 1-Isopropyl-3-[7-(1-methyl-1H-pyrazol-4-yl)-quinoxalin-2-yl]-urea] | – | – | 601 | 564 | 1320 | 801 | 260 to 263 | 991 | –
5 | CCCCNC(=O)Nc1cnc2ccc(-c3cc(Cl)c(O)c(Cl)c3)cc2n1 [Compound 72, 1-Butyl-3-[7-(3,5-dichloro-4-hydroxy-phenyl)-quinoxalin-2-yl]-urea] | – | – | 880 | 1820 | 3260 | 3190 | 297 to 298 | 779 | –
6 | CCCNC(=O)Nc1cnc2ccc(-c3cc(Cl)c(O)c(Cl)c3)cc2n1 [Compound 73, 1-[7-(3,5-Dichloro-4-hydroxy-phenyl)-quinoxalin-2-yl]-3-propyl-urea] | – | – | 1180 | 1560 | 3360 | 4140 | 295 to 296 | 814 | –
7 | CCNC(=O)Nc1cnc2ccc(-c3cc(Cl)c(O)c(Cl)c3)cc2n1 [Compound 74, 1-[7-(3,5-Dichloro-4-hydroxy-phenyl)-quinoxalin-2-yl]-3-ethyl-urea] | – | – | 2200 | 3090 | 3910 | 10000 | 295 to 296 | 2100 | –
8 | O=C(Nc1cnc2ccc(-c3cc(Cl)c(O)c(Cl)c3)cc2n1)NC1CCCCCC1 [Compound 78, 1-Cycloheptyl-3-[7-(3,5-dichloro-4-hydroxy-phenyl)-quinoxalin-2-yl]-urea] | – | – | 306 | 809 | 1180 | 3110 | 283 to 286 | 436 | –
9 | O=C(Nc1cnc2ccc(-c3cc(Cl)c(O)c(Cl)c3)cc2n1)NC1CCCCCCC1 [Compound 79, 1-Cyclooctyl-3-[7-(3,5-dichloro-4-hydroxy-phenyl)-quinoxalin-2-yl]-urea] | – | – | 300 | 503 | 1030 | 1160 | 258 to 260 | 253 | –
10 | Oc1c(Cl)cc(-c2ccc3ncc(NC(=S)NC4CCC4)nc3c2)cc1Cl [Compound 80, 1-Cyclobutyl-3-[7-(3,5-dichloro-4-hydroxy-phenyl)-quinoxalin-2-yl]-thiourea] | – | – | 1190 | 1710 | 2040 | 2000 | 277 to 280 | 672 | –
11 | Oc1c(Cl)cc(-c2ccc3ncc(NC(=S)NC4CC4)nc3c2)cc1Cl [Compound 83, 1-Cyclopropyl-3-[7-(3,5-dichloro-4-hydroxy-phenyl)-quinoxalin-2-yl]-thiourea] | – | – | 955 | 2090 | 2290 | 1970 | 260 to 262 | 1050 | –
12 | CCCCNC(=S)Nc1cnc2ccc(-c3cc(Cl)c(O)c(Cl)c3)cc2n1 [Compound 87, 1-Butyl-3-[7-(3,5-dichloro-4-hydroxy-phenyl)-quinoxalin-2-yl]thiourea] | – | – | 790 | 1090 | 1530 | 2490 | 226 to 227 | 464 | –
13 | CCCCCNC(=S)Nc1cnc2ccc(-c3cc(Cl)c(O)c(Cl)c3)cc2n1 [Compound 90, 1-[7-(3,5-Dichloro-4-hydroxy-phenyl)-quinoxalin-2-yl]-3-pentyl-thiourea] | – | – | 556 | 1010 | 1090 | 1230 | 237 to 238 | 318 | –
14 | Oc1c(Cl)cc(-c2ccc3ncc(NC(=S)NC4CCCCCCC4)nc3c2)cc1Cl [Compound 93, 1-Cyclooctyl-3-[7-(3,5-dichloro-4-hydroxy-phenyl)-quinoxalin-2-yl]-thiourea] | – | – | 334 | 409 | 1030 | 1800 | 288 to 289 | 193 | –
15 | Oc1c(Cl)cc(-c2ccc3ncc(NC(=S)NCc4ccccc4)nc3c2)cc1Cl [Compound 94, 1-Benzyl-3-[7-(3,5-dichloro-4-hydroxy-phenyl)-quinoxalin-2-yl]-thiourea] | – | – | 821 | 586 | 891 | 2080 | 275 to 277 | 169 | –
16 | Oc1c(Cl)cc(-c2ccc3ncc(NC(=S)NCCCc4ccccc4)nc3c2)cc1Cl [Compound 96, 1-[7-(3,5-Dichloro-4-hydroxy-phenyl)-quinoxalin-2-yl]-3-(3-phenyl-propyl)-thiourea] | – | – | 1650 | 1540 | 1820 | 2350 | 248 to 250 | 1040 | –
17 | Oc1c(Cl)cc(-c2ccc3ncc(NC(=S)NCCc4ccccc4)nc3c2)cc1Cl [Compound 97, 1-[7-(3,5-Dichloro-4-hydroxy-phenyl)-quinoxalin-2-yl]-3-phenethyl-thiourea] | – | – | 538 | 700 | 1510 | 1820 | 282 to 285 | 568 | –

The next compounds have a lower EC50 (PC-3) than those just listed; values first:

Row | EC50 (SKOV-3) [nM] | EC50 (NCI-H460) [nM] | EC50 (PC-3) [nM] | EC50 (HCT116) [nM] | EC50 (A549) [nM] | EC50 (U87MG) [nM] | melting point [°C] | SMILES | EC50 (MDA MB468) [nM] | EC50 (RKOP27) [nM]
18 | 67 | 85 | 51 | 42 | 76 | 77 | – | Cc1cc(-c2ccc3ncc(NC(=O)NC4CCCCC4)nc3c2)cc(C)c1O [Compound 12, 1-Cyclohexyl-3-[7-(4-hydroxy-3,5-dimethylphenyl)quinoxalin-2-yl]urea] | 125 | –
19 | 32 | 38 | 16 | 21 | 46 | 8 | 276 to 280 | CCCCNC(=O)Nc1cnc2ccc(-c3cc(C)c(O)c(C)c3)cc2n1 [Compound 18, 1-Butyl-3-[7-(4-hydroxy-3,5-dimethylphenyl)quinoxalin-2-yl]urea] | 30 | –
20 | 45 | 60 | 15 | 30 | 23 | 13 | 269 to 271 | Cc1cc(-c2ccc3ncc(NC(=S)NC(C)C)nc3c2)cc(C)c1O [Compound 31, 1-[7-(4-Hydroxy-3,5-dimethylphenyl)quinoxalin-2-yl]-3-isopropylthiourea] | 25 | –
21 | 27 | 30 | 9 | 16 | 9 | 3 | 278 to 280 | CCCCNC(=S)Nc1cnc2ccc(-c3cc(C)c(O)c(C)c3)cc2n1 [Compound 32, 1-Butyl-3-[7-(4-hydroxy-3,5-dimethylphenyl)quinoxalin-2-yl]thiourea] | 20 | –
22 | 50 | 52 | 12 | 36 | 16 | 224 | 285 to 286 | Cc1cc(-c2ccc3ncc(NC(=S)NC4CCC4)nc3c2)cc(C)c1O [Compound 34, 1-Cyclobutyl-3-[7-(4-hydroxy-3,5-dimethylphenyl)quinoxalin-2-yl]-thiourea] | 30 | 58
23 | 42 | 64 | 9 | 43 | 34 | 111 | 276 to 277 | CCCNC(=O)Nc1cnc2ccc(-c3cc(C)c(O)c(C)c3)cc2n1 [Compound 36, 1-[7-(4-Hydroxy-3,5-dimethylphenyl)quinoxalin-2-yl]-3-propylurea] | 43 | –
24 | – | 218 | 76 | 91 | 217 | 105 | – | C=CCNC(=O)Nc1cnc2ccc(-c3cc(C)c(O)c(C)c3)cc2n1 [Compound 41, 1-Allyl-3-[7-(4-hydroxy-3,5-dimethylphenyl)quinoxalin-2-yl]urea] | 131 | –
